In one data set the target is T1, human TLR8 (Homo sapiens, UniProt Q9NR97).
T1 sequence (Q9NR97 27-1041): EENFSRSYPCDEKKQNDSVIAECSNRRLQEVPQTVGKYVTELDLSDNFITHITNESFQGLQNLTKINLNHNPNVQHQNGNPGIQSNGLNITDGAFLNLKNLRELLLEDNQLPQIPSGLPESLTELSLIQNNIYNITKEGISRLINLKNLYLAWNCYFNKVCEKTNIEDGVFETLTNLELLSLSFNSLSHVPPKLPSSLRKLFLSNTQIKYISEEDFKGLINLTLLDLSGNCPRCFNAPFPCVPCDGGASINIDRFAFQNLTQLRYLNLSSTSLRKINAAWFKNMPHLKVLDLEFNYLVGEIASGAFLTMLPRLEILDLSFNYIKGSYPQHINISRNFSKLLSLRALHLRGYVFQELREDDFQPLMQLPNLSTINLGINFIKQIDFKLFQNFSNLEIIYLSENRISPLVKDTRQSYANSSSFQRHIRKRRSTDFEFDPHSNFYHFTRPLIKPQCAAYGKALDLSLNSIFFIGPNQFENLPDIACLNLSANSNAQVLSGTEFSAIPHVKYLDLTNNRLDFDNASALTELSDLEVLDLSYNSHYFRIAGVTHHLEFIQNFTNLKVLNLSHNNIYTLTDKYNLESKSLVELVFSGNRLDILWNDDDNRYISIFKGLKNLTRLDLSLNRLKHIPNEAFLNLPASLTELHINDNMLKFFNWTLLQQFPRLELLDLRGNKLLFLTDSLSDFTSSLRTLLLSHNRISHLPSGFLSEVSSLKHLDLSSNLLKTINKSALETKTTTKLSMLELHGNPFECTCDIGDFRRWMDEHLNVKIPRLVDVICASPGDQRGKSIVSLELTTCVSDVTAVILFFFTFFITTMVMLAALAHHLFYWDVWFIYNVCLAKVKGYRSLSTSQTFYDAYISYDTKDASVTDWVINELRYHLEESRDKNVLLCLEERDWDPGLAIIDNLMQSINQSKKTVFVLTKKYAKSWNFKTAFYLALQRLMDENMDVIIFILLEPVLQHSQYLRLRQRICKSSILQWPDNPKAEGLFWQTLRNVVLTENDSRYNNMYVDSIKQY
As to the kind of experiment: HEK293-Blue-hTLR-8 cells assay (SEAP reporter, R848 stimulation). It is filed as cell-based. Particulars: HEK293-Blue-hTLR8 cells, R848 ligand, 20 hrs incubation; read-out: HEK/hTLR8 IC50. On the procedure: The following tests were carried out in order to determine the activity of the compounds of formula (I) in HEK293-Blue-hTLR-7/8/9 cells assay.
A stable HEK293-Blue-hTLR-8 cell line was purchased from InvivoGen (Cat.#: hkb-htlr8, San Diego, California, USA). These cells were originally designed for studying the stimulation of human TLR8 by monitoring the activation of NF-κB. A SEAP (secreted embryonic alkaline phosphatase) reporter gene was placed under the control of the IFN-β minimal promoter fused to five NF-κB and AP-1-binding sites. The SEAP was induced by activating NF-κB and. AP-1 via stimulating HEK-Blue hTLR8 cells with TLR8 ligands. Therefore the reporter expression was declined by TLR8 antagonist under the stimulation of a ligand, such as R848, for incubation of 20 hrs. The cell culture supernatant SEAP reporter activity was determined using QUANTI-Blue™ kit (Cat.#: rep-qb1, Invivogen, San Diego, Ca, USA) at a wavelength of 640 nm, a detection medium that tunas purple or blue in the presence of alkaline phosphatase.
HEK293-Blue-hTLR8 cells were incubated at a density of 250,000˜450,000 cells/mL in a volume of 170 μL in a 96-well plate in Dulbecco's Modified Eagle's medium (DMEM) containing 4.5 g/L glucose, 50 U/mL penicillin, […], […], 2 mM L-glutamine, 10% (v/v) heat-inactivated fetal bovine serum with addition of 20 μL test compound in a serial dilution in the presence of final DMSO at 1% and 10 μL of 60 uM R848 in above DMEM, perform incubation under 37° C. in a CO2 incubator for 20 hrs. Then 20 μL of the supernatant from each well was incubated with […] Quanti-blue substrate solution at 37° C. for 2 hrs and the absorbance was read at 620-655 nm using a spectrophotometer. The signalling pathway that TLR8 activation leads to downstream NF-κB activation has been widely accepted, and therefore similar reporter assay was modified for evaluating TLR8 antagonist.

For another data set, the target named is T2, hERG (Homo sapiens, UniProt Q12809).
T2 construct: expressed in transfected cells
T2 sequence (Q12809 whole entry): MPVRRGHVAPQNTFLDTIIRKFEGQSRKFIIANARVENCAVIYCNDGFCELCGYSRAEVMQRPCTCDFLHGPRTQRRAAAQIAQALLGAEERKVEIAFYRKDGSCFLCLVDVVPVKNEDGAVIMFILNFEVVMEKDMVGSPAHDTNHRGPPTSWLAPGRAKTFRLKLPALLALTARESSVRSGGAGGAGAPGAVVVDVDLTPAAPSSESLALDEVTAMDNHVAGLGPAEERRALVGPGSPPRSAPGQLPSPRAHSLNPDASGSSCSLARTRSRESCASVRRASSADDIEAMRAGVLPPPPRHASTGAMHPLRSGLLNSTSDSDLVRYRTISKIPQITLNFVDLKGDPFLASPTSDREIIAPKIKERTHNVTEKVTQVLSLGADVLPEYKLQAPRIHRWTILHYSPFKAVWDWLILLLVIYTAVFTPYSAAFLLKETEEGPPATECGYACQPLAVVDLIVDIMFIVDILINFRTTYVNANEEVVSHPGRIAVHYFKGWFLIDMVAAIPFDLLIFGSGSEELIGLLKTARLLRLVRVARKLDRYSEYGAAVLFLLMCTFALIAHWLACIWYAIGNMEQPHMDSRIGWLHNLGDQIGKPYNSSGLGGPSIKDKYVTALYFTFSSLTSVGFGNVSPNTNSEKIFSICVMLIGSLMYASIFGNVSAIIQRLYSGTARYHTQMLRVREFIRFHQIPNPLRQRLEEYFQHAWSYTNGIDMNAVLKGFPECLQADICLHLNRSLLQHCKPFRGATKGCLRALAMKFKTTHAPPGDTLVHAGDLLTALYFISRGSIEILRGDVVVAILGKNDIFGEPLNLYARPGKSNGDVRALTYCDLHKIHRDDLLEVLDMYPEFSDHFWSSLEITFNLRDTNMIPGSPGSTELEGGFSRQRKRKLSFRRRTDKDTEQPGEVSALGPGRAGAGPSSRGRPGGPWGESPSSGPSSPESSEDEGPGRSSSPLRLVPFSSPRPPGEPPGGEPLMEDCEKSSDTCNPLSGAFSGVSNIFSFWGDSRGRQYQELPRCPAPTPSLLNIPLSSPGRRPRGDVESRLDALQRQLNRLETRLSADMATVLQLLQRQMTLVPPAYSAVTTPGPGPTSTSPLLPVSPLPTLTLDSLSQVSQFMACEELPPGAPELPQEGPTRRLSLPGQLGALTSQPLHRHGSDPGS
As to the kind of experiment: hERG channel inhibition assay (patch-clamp, CHO hERG cells). It is filed as cell-based. Particulars: for IC50 / IC20: CHO hERG cells, whole-cell patch-clamp; for IC20: human, CHO cells stably expressing hERG; for hERG IC20/TLR7 IC50 / hERG IC20/TLR8 IC50 / hERG IC20/TLR9 IC50: safety ratio, >30 suggests sufficient window. The protocol: The hERG K^+ channels were cloned in humans and stably expressed in a CHO (Chinese hamster ovary) cell line. CHOhERG cells were used for patch-clamp (voltage-clamp, whole-cell) experiments. Cells were stimulated by a voltage pattern to activate hERG channels and conduct I KhERG currents (rapid delayed outward rectifier potassium current of the hERG channel). After the cells were stabilized for a few minutes, the amplitude and kinetics of I KhERG were recorded at a stimulation frequency of 0.1 Hz (6 bpm). Thereafter, the test compound was added to the preparation at increasing concentrations. For each concentration, an attempt was made to reach a steady-state effect, usually, this was achieved within 3-10 min at which time the next highest concentration was applied. The amplitude and kinetics of IKhERG are recorded in each concentration of the drug which were compared to the control values (taken as 100%). […]
In general terms: The hERG channel carries a current that helps repolarise heart muscle cells.

In general, IC20 refers to the point of the concentration-response curve where the effect stands at 20%. Higher therefore signals weaker potency. For `C[C@@H]1CN(c2ccc(C#N)c3ncccc23)C[C@H](C)N1Cc1ccc(N2CCN(C(=O)C3CCCN3)CC2)cn1` (stereo partly drawn) [Example 10, 5-[(3R,5S)-3,5-Dimethyl-4-[[5-[4-(pyrrolidine-2-carbonyl)piperazin-1-yl]-2-pyridyl]methyl]piperazin-1-yl]quinoline-8-carbonitrile], the IC50 at human TLR8 was 52 nM. On hERG, the IC50 is above 20 µM, the IC20 is above 10 µM, the “hERG IC20/TLR7 IC50” value is given as above 145 and the “hERG IC20/TLR8 IC50” value is above 197. Further, at hERG, the “hERG IC20/TLR9 IC50” value is recorded as above 242.

As to `C[C@@H]1CN(c2ccc(C#N)c3ncccc23)C[C@H](C)N1Cc1ccc(N2CCNCC2)cn1` [Example 5, 5-[(3S,5R)-3,5-Dimethyl-4-[(5-piperazin-1-yl-2-pyridyl)methyl]piperazin-1-yl]quinoline-8-carbonitrile], the IC50 on human TLR8 came out at 15 nM. Further, on hERG, the IC50 is above 20 µM, the IC20 was above 10 µM, the “hERG IC20/TLR7 IC50” value is listed as above 833 and the “hERG IC20/TLR8 IC50” value is given as above 666. For the same compound, the “hERG IC20/TLR9 IC50” value on hERG was above 119.
